Measurements: patent publication US20090192077A1, “North-2'deoxy -methanocarbathymidines as antiviral agents for treatment of kaposi's sarcoma-associated herpes virus” (priority 2005, published 2009)

Experiments:
KSHV [1] = assay: Anti-KSHV activity in PMA-induced BCBL-1 cells (virion-associated and cytoplasmic KSHV DNA by PCR); assay type: cell-based, Kaposi's sarcoma-associated herpesvirus; conditions: for IC50 / IC90: Human gammaherpesvirus 8, BCBL1, 72 h, PMA-stimulated BCBL-1 cells, KSHV virion production, 3 days; for IC50: read-out: IC50 (μM) (mean ± SD), anti-KSHV activity; for IC90: read-out: IC90 (μM) (mean ± SD), anti-KSHV activity
Method: A small fraction (1-3%) of BCBL-1 cells in culture is known to spontaneously undergo lytic cycle and release KSHV virions (Kedes, D. H. et al. 1997 J Clin Invest 99:2082-6; Renne, R. et al. 1996 Nat Med 2:342-6). The antiviral effects of N-MCT and two reference anti-herpetic compounds, CDV and GCV, were determined by the relative reduction in the amounts of cytoplasmic KSHV DNA and newly released KSHV virion-associated DNA in BCBL-1 cells exposed to the test compounds, following lytic induction by phorbol ester, PMA (Renne, R. et al. 1996 Nat Med 2:342-6).
Exponentially growing BCBL-1 cells were washed three times with phosphate-buffered saline (PBS) and resuspended in serum free AIM-V w/BSA medium (Invitrogen, Carlsbad, Calif.) at 2×10^5 cells/mL in the absence (unstimulated control) or presence of 20 ng/mL PMA. After 24 hours, unstimulated and PMA-stimulated BCBL-1 were harvested, washed once with PBS and cultured in serum free AIM-V w/BSA medium at 2×10^5 cells/mL without PMA in the absence or presence of the test compounds at varying concentrations. After 3 days, the cells were counted by the trypan blue dye exclusion method and centrifuged at 1,500 rpm for 5 min. The supernatants were centrifuged at 3,000 rpm for 10 min before subjected to virion-derived KSHV DNA extraction and quantitation, as described below.
Low molecular weight (LMW) DNA was extracted from the pelleted cells according to Hirt's method (Hirt, B. 1967 J Mol Biol 26:365-9) and 0.1 μg of LMW DNA was used for KSHV open reading frame 65 (ORF65) PCR by a primer pair (5′-[…]-3′, SEQ ID NO: 2) and 5′-[…]-3′, SEQ ID NO: 3), generating a 529 bp fragment. The ORF65 PCR reaction mixture, containing 20 mM Tris-HCl (pH 8.4), 50 mM KCl, 2.5 mM MgCl2, 200 μM each dNTP, 0.25 U of Platinum® Taq DNA polymerase (Invitrogen), […] and template DNA, was subjected to 25 cycles of PCR amplification at 94° C. for 60 sec, 60° C. for 60 sec and 72° C. for 60 sec, followed by a final extension at 72° C. for 5 min. In addition, the mitochondrial DNA primer pair (5′-[…]-3′, SEQ ID NO: 4 and 5′-[…]-3′, SEQ ID NO: 5) was used as an internal control for each LMW DNA PCR sample (Yang, Q. et al. 2005 J Virol 79:6122-6133). The amplified products were visualized by electrophoresis on a 1.8% agarose gel.
KSHV virions were pelleted from 300 μL of BCBL-1 culture supernatants by a microcentrifugation at 37,000 g for 2 hours at 4° C. The pelleted virions were resuspended in 150 μL PBS and treated with 20 units of DNase I (Promega, Madison, Wis.) at 37° C. for 30 min to remove cellular DNA from the samples, followed by the incubation with stop solution (20 mM EGTA) at 70° C. for 5 min. Virion-associated KSHV DNA (vDNA) was then extracted by QIAamp DNA extraction kit (QIAGEN, Valencia, Calif.) according to the manufacturer's instructions. One μL of vDNA eluted in 100 μL of elution buffer was subjected to real-time quantitative PCR using a LightCycler® instrument (Roche Applied Science, Indianapolis, Ind.). The 20-μL reaction mixture consisted of the LightCycler FastStart DNA Master SYBR Green I reagents mix (Roche Applied Science), 2.5 mM MgCl2 and 500 nM each of KSHV ORF26 primer pair (5′-[…]-3′, SEQ ID NO: 6 and 5′-[…]-3′, SEQ ID NO: 7). Ten-fold serial dilutions of the plasmid, pKS330Bam (obtained through the AIDS Research and Reference Reagent Program, Division of AIDS, NIAID, NIH, contributed by Drs. Yuan Chang and Patrick Moore), which contained a 330 bp KSHV fragment encoding a portion of the ORF26 gene (Chang, Y. et al. 1994 Science 266:1865-9), were included in each assay as external standards to represent 10 to […] KSHV DNA copies/tube. The number of KSHV vDNA in each supernatant sample was calculated by the LightCycler software version 3.5 (Roche Applied Science), adjusted by the cell count and expressed as copies/10^6 cells.

KSHV [2] = assay: Anti-KSHV activity in the presence of herpesvirus TK inhibitor 5'-ET; assay type: cell-based, Kaposi's sarcoma-associated herpesvirus; conditions: PMA-induced BCBL-1; 1 μM N-MCT or 10 μM CDV with 10, 20 or 50 μM 5'-ET
Method: (§1) The cytotoxicity of the compounds was determined simultaneously in uninduced and PMA-induced BCBL-1 cells in microplates, using the XTT assay (Weislow, O, S. et al. 1989 J Natl Cancer Inst 81:577-86).
Exponentially growing BCBL-1 cells or CEM-SS cells (a human T cell line) were washed three times with PBS and cultured in serum free AIM-V w/BSA medium (Invitrogen) at 2×10^5 cells/mL in the absence (unstimulated control) or presence of 20 ng/mL PMA. After 24 hours, unstimulated and PMA-stimulated cells were harvested, washed once with PBS and resuspended in […] radiolabeled compound [^3H]-(N)-MCT, [^3H]-CDV or [^3H]-GCV. Control cultures containing the same concentration of the test compounds but without the radiolabeled formulations were simultaneously set up in an identical manner to assess the cell counts and to evaluate their anti-KSHV activity. In selected experiments, 5′-ET was added at 10˜50 μM to investigate the changes in the anti-KSHV activity and intracellular phosphorylation profiles of the test compounds. The cells were harvested after 24 or 72 hours of incubation.

[3] = tested on: PMA-stimulated BCBL-1 cells; assay: Cytotoxicity by XTT assay in BCBL-1 cells
Method: as §1
PMA-stimulated BCBL-1 cells were cultured with increasing concentrations of N-MCT, CDV or GCV and the cell growth was determined by XTT method (Weislow, O, S. et al. 1989 J Natl Cancer Inst 81:577-86) after 72 hours and shown as % no drug control (mean±SD of triplicate wells).

HSV-2 = conditions: cited from earlier work
HSV-1 = conditions: cited from earlier work
BCBL-1 cells = assay: Intracellular phosphorylation in KSHV-infected BCBL-1 cells (HPLC of methanolic extracts)
Method: Exponentially growing BCBL-1 cells or CEM-SS cells (a human T cell line) were washed three times with PBS and cultured in serum free AIM-V w/BSA medium (Invitrogen) at 2×10^5 cells/mL in the absence (unstimulated control) or presence of 20 ng/mL PMA. After 24 hours, unstimulated and PMA-stimulated cells were harvested, washed once with PBS and resuspended in serum free AIM-V […] radiolabeled compound [^3H]-(N)-MCT, [^3H]-CDV or [^3H]-GCV. Control cultures containing the same concentration of the test compounds but without the radiolabeled formulations were simultaneously set up in an identical manner to assess the cell counts and to evaluate their anti-KSHV activity. In selected experiments, 5′-ET was added at 10˜50 μM to investigate the changes in the anti-KSHV activity and intracellular phosphorylation profiles of the test compounds. The cells were harvested after 24 or 72 hours of incubation.
Upon harvest, the cells were centrifuged at 1,500 rpm for 10 min and washed once with cold PBS. The cell pellets were resuspended in 250 μL of 60% methanol and heated at 95° C. for 3 min, followed by a microcentrifugation at 12,000 g for 10 min at 4° C. The clarified supernatant fractions were evaporated under nitrogen, redissolved in 250 μL of water and subjected to HPLC separation of the phosphorylated metabolites as described in detail elsewhere (Noy, R. et al. 2002 Mol Cancer Ther 1:585-93; Zalah, L. et al. 2002 Antiviral Res 55:63-75). Fractions containing radiolabeled nucleotides were quantitated based on the known specific activity of the parent tritiated nucleoside (Noy, R. et al. 2002 Mol Cancer Ther 1:585-93; Zalah, L. et al. 2002 Antiviral Res 55:63-75).

[4] = molecular target: T1, recombinant KSHV DNA polymerase (rPOL) and polymerase processivity factor (rPPF) (Human herpesvirus 8 type P, UniProt Q2HRD0); conditions: read-out: IC50 (μM) (mean ± SD), KSHV rPOL/rPPF-mediated DNA synthesis; 37° C., 60 min
T1 sequence (Q2HRD0 1-1012): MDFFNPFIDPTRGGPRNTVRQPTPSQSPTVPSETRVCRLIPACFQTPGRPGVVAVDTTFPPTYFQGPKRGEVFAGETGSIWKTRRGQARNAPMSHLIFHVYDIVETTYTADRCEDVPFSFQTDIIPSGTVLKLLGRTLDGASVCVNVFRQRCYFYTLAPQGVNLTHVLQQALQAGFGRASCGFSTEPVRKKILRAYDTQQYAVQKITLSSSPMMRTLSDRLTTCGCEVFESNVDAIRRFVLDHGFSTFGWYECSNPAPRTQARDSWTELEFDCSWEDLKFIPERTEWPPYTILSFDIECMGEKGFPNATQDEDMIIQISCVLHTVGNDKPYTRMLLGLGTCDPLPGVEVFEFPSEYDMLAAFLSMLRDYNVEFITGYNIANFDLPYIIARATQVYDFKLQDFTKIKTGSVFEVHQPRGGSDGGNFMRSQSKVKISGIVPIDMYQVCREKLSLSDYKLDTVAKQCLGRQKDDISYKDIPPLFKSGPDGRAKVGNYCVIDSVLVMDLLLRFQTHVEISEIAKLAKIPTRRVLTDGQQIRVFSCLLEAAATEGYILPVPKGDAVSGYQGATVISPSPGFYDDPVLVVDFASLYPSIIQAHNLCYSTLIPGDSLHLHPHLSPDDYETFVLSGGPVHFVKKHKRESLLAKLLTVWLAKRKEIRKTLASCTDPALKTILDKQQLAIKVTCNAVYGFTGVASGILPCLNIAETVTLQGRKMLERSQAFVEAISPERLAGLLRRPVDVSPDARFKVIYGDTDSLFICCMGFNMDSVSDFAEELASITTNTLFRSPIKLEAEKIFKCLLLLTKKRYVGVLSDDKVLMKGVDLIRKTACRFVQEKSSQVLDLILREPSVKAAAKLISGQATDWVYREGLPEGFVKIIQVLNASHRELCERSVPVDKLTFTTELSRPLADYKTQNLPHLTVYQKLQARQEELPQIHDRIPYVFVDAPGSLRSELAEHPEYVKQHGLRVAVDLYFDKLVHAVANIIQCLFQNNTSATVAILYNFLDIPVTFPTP
T1 sequence (F5HID2 1-396 partner): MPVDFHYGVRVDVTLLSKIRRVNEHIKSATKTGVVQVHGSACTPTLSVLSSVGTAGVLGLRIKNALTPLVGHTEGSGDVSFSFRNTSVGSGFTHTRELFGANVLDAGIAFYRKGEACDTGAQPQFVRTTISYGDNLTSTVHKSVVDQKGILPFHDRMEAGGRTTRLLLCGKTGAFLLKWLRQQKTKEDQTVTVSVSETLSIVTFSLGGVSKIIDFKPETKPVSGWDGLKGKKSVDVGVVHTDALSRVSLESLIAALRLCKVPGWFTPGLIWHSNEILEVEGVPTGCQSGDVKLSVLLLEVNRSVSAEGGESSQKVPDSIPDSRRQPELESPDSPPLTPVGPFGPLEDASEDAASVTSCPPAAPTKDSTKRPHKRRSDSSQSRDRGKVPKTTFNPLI
Method: KSHV rPOL and rPPF were expressed and purified from the recombinant baculovirus-vector infected Sf9 cells (Dorjsuren, D. et al. 2003 Protein Expr Purif 29:42-50). […] The amounts of newly synthesized DNA, which incorporated DIG-dUTP, were determined by the DIG detection kit (Roche Applied Science) according to the manufacturer's instructions.

Nc1ccn(C[C@@H](CO)OCP(=O)(O)O)c(=O)n1 [CDV, cidofovir]
IC50 (KSHV [1]): 0.42 ± 0.07 µM
IC90 (KSHV [1]): 4.01 ± 2.05 µM
effect of adding 5'-ET on anti-KSHV activity (KSHV [2]): not affected
cytotoxicity at anti-KSHV concentrations ([3]; 0.03 to 10 μM, PMA-induced BCBL-1 cells): without notable cytotoxicity

Nc1nc(O)c2ncn(COC(CO)CO)c2n1 [GCV, ganciclovir]
IC50 (KSHV [1]): 0.96 ± 0.49 µM
IC90 (KSHV [1]): 7.11 ± 0.28 µM

Cc1cn([C@H]2C[C@H](O)[C@]3(CO)C[C@H]23)c(=O)[nH]c1=O [N-MCT, North-methanocarbathymidine]
antiviral activity against HSV-2 (HSV-2): strong antiviral activity
IC50 (KSHV [1]): 0.08 ± 0.03 µM
IC90 (KSHV [1]): 0.68 ± 0.1 µM
effect of adding 5'-ET on anti-KSHV activity (KSHV [2]): marked increases in the level of cytoplasmic KSHV DNA
antiviral activity against HSV-1 (HSV-1): strong antiviral activity
50% cytotoxic concentration ([3]; human, 72 h): > 200 µM

Cc1cn([C@H]2C[C@H](O)[C@]3(COP(=O)(O)OP(=O)(O)O)C[C@H]23)c(=O)[nH]c1=O [N-MCT-DP]
level of phosphorylated metabolite in the presence of 50 μM 5'-ET (BCBL-1 cells): substantially decreased

Cc1cn(C2CC(O)C3(COP(=O)(O)O)CC23)c(=O)[nH]c1=O (stereo not shown) [N-MCT-MP]
level of phosphorylated metabolite in the presence of 50 μM 5'-ET (BCBL-1 cells): accumulation

Cc1cn([C@@]23C[C@H](O)[C@@H](CO)[C@@H]2C3)c(=O)[nH]c1=O [S-MCT, south-methanocarbathymidine]
antiviral activity against HSV-2 (HSV-2): no antiviral activity
antiviral activity against KSHV (KSHV [1]; data not shown): no antiviral activity
antiviral activity against HSV-1 (HSV-1): no antiviral activity

cidofovir diphosphate [CDV-DP]
IC50 [4]: 14.7 ± 2.47 µM

ganciclovir triphosphate [GCV-TP]
IC50 [4]: 24.6 ± 5.6 µM
